Assay results taken from US6551774B1, “Diagnostic methods for conditions associated with elevated cellular levels of telomerase activity” (Board of Regents, The University of Texas System, priority 1992, dated 2003).

Experiments:
[1] = test system: IDH4 immortalized human fibroblast cell line; test: IDH4 cells incubated with GTO: population doublings and TRF length (Example 12); format: cell-based; conditions: for population doublings in 90 days: fed every other day (control 45 PDL)
Description: As in Example 2, an immortalized human fibroblast cell line, IDH4, which has very short TRFs, was incubated with GTO oligonucleotide. Referring to FIGS. 15 and 16, cells were incubated in regular culture medium containing serum in the presence of 10 μM, 30 μM and 100 μM GTO. The cells were fed fresh phosphodiester GTO oligonucleotide every other day and subcultured when confluent for a total of 90 days. The cells were still growing in GTO after 90 days at all concentrations used even though they grew more slowly at the higher GTO concentrations and went through fewer population doubling (control, 45 PDL; 10 μM GTO 40 PDL; 30 μM 35 PDL; 100 μM 25 PDL). […] The control and 30 μM GTO were passaged without oligonucleotide addition for an additional 90 days (approximately 35-40 PDL). As is illustrated in FIG. 16, the TRFs slowly shorten.

[2] = test system: MDA 157 human breast cancer cells; test: Proliferation of MDA 157 cancer cells fed oligonucleotides (Example 2); format: cell-based
Description: Specifically, MDA 157 human breast cancer cells with an immortal phenotype were seeded at 10,000 cells per well in 12 well tissue culture dishes and fed medium only or medium supplemented with GTO-12 (at 1.0 μM, 0.1 μM, and 0.01 μM). […] Cells fed the GTO-12 oligonucleotide, at 1.0 μM, however, ceased to proliferate after less than 10 doubling. […] The lack of effect of the G+C mixture may reflect the CTO-12 oligonucleotide, competing with or base pairing with the GTO-12 oligonucleotide, this preventing its inhibitory effect on the cancer cell telomerase.

Tetrahymena cells [3] = test: Progeny formation (cycloheximide resistance) of Tetrahymena conjugated in the presence of analog; format: cell-based, Tetrahymena thermophila; conditions: for # CHX-R: number of cycloheximide-resistant wells; for irreversible disruption of macronuclear development: analog present during conjugation
Description: For analysis of cycloheximide (CHX) sensitivity of cells conjugated in the presence of analog, 50 ml cultures of each cell type were grown overnight in 2% PPYS, starved in Dryl's for 18 hours, mated (5×10^5 cells/ml) for 6 hours, then analog was added. Cells were allowed to complete mating in the presence of the analog. Twenty-four hours after mixing, cells were diluted in Dryl's solution, counted and plated at 1 cell per well of 96-well plates in 1% PPYS without analog. Cells were grown for 4 days in a humid chamber at 30° C., without shaking. Cells were then replica plated into 1% PPYS plus 15 μg/ml cycloheximide, allowed to grow for four days before scoring, and percent of CHX-resistant wells was calculated. Because generation of progeny expressing the cycloheximide marker requires successful production of a new macronucleus, cells whose macronuclear development was disrupted by the analog are killed in CHX.
This process involves de novo formation of new macronuclear telomeres in the progeny cells. Macronuclear development in ciliated protozoans such as Tetrahymena involves developmentally programmed, site-specific fragmentation of germline chromosomes into linear subchromosomes, whose ends are healed by de novo addition of telomeres. […] Because of the immediate requirement for telomere addition to fragmented DNA, it is possible that the latter process might be more sensitive to telomerase inhibition than telomere maintenance during vegetative growth. To test whether nucleoside analogs cause inhibition of macronuclear development due to a disruption of telomere formation, we mated two strains of Tetrahymena which are sensitive to cycloheximide, but whose progeny after mating are resistant to cycloheximide. Synchronized mated cells were treated with AZT at concentrations ranging from 10 μM to 5 mM for a period beginning just prior to when macronuclear development begins and continuing during macronuclear development (the period 6-24 hours after mating was initiated). […] In attempts to maximize the effect of AZT, cells were either refed at 6 hrs with 2% PPYS or Isobroth, or starved until 24 hrs (the duration of the AZT treatment). Such starvation arrests macronuclear development at an intermediate stage. When refed, macronuclear development would then be forced to proceed in the presence of the AZT. Control, unmated parental cells were also plated and exposed to drug.

Tetrahymena cells [4] = test: Single-cell transfer cultures of Tetrahymena with AZT or Ara-G; format: cell-based, Tetrahymena thermophila; conditions: 10 μM AZT; 10 μM or 1 mM Ara-G; 1 to 10 cells per well
Description: For analysis of vegetative growth and macronuclear DNA from single-cell cultures containing the nucleoside analogs AZT or Ara-G, SB210 (VI) cells were grown from stationary stock cultures overnight at 30° C. with shaking (100 rpm) in 50 ml 2% PPYS or Isobroth. Cells were counted and added to the appropriate medium plus analog (Ara-G to 1 mM or DMSO to 1% as control in 2% PPYS; AZT to 10 μm or 1 mM, or no addition as control in Isobroth) and plated in 96-well plates (Falcon), 100 μl per well at a density of 1 cell per well. 5 plates were prepared for each analog or control. Wells were scored for cell growth and plates were replica plated every 1-2 days (Ara-G and DMSO plates) or every 2-4 days (AZT and Isobroth control plates) to maintain approximate inoculation densities of 1-10 cells per well for each passage. Occasionally individual wells were passaged by hand (1 μl inoculated per well using a pipettor) into several blank wells, to expand the number of live wells per plate as single-cell cultures were lost over time due to low probability of being transferred at each passage. After passaging, cells were pooled, pelleted and stored at −80° C. until processed for DNA analysis.
To test whether we had missed such a subpopulation of cells, we carried out the same experiments on vegetatively dividing Tetrahymena cells in the presence and absence of drug, but in these experiments the subculturing was carried out by plating cells at an average of 1 to 10 cells per well in microtiter plate wells in the presence of 10 μM and 1 mM AZT, and 10 μM and 1 mM Ara-G. For each drug, cells were plated out in this manner for 30 consecutive days (90 to 150 cell generations) and 16 consecutive days (50 to 80 cell generations) respectively for the 10 μM and 1 mM drug concentrations. DNA was isolated at intervals from combined samplings of the wells for analysis of telomere length.

[5] = test system: lymphoma cell line JY 616; test: Growth of cultured JY lymphoma cells with potential telomerase inhibitors; format: cell-based, human; conditions: 20 μM
Description: (§1) The effect of the agents on telomerase activity in intact cells was then studied utilizing the lymphoma cell line JY 616 which were maintained in RPMI 1640 with […] Hepes, 10% FCS, and penicillin/streptomycin (Gibco). The cells were cultured in 6-well plates (Falcon) with 5.0 ML of medium per well in duplicate. Cells were passaged every 7-10 days which corresponded to 5-7 mean population doublings (MPD), and seeded at 3×10^4 cells per well into fresh medium containing analog or control. Cell viability was monitored prior to harvest utilizing trypan blue stain (Gibco) during counting with a hemocytometer. The average ratio of stained: unstained cells (dead:alive) was […]. The intactness of the DNA was measured on a parallel gel by observing its mobility in a gel prior to digestion by a restriction enzyme.

Tetrahymena cells [6] = test: Growth, morphology and senescence of Tetrahymena mass-transfer cultures with nucleoside analogs; format: cell-based, Tetrahymena thermophila; conditions: 2% PPYS plus, mass transfer
Description: (§2) For analysis of macronuclear DNA from cultures containing the nucleoside analog AZT (Sigma), or controls lacking analog, at various timepoints during vegetative divisions, cells from stationary stock cultures were inoculated into 25 ml thymine-deficient Iso-sensitest broth (‘Isobroth’, Oxoid USA) in 250 ml flasks. Cultures were incubated at 30° C. with shaking (100 rpm) for 48 hours. Cells were counted and plated at 1000 cells/1.5 ml in 24-well plates (Falcon) and grown at 30° C., without shaking, for 48 hours. 5 μl of these log phase cells were used to inoculate 1 ml cultures (Isobroth) containing varied concentrations of nucleoside analog. Thereafter, every 2-4 days cells were transferred, either 5 μl per well, or 1-3 μl using a multi-pronged replicator into fresh 1 ml broth containing AZT. Remaining cells were pelleted and stored at −80° C. until processed for DNA analysis.
(§3) For analysis of macronuclear DNA from vegetative cultures containing the nucleoside analogs Ara-G (Calbiochem), ddG (Calbiochem), or ddI (Calbiochem), or controls lacking analog, stock cultures were grown overnight in 2% PPYS as described. Cells were counted and plated at 100 cells/2 ml in 2% PPYS containing varied amounts of analog, 1% DMSO (Fisher) (as a control for ddG and Ara-G), or 2% PPYS alone. Cells were replica plated into fresh medium every 2-6 days, and remaining cells were pelleted and stored at −80° C. until processed for DNA analysis.
To test whether such a phenotype could be produced by inhibitors of telomerase in Tetrahymena, duplicate log-phase cultures were grown for prolonged periods in the presence of varying concentrations of analogs. The growth and cell morphology of these cultures were monitored, and DNA was isolated at different times for telomere length analysis. […] From growth rate measurements it was calculated that the cells went through 150 to 250 cell generations in the course of this 50 day period.

[7] = target: T1, human telomerase obtained from the tumor cell line 296 (Homo sapiens, UniProt O14746); test: Inhibition of human telomerase from a tumor cell line; format: biochemical
T1 construct: human telomerase obtained from the tumor cell line 296; endogenous in cells; host or cells: tumor cell line 296 (so in the source)
T1 sequence (O14746 whole entry): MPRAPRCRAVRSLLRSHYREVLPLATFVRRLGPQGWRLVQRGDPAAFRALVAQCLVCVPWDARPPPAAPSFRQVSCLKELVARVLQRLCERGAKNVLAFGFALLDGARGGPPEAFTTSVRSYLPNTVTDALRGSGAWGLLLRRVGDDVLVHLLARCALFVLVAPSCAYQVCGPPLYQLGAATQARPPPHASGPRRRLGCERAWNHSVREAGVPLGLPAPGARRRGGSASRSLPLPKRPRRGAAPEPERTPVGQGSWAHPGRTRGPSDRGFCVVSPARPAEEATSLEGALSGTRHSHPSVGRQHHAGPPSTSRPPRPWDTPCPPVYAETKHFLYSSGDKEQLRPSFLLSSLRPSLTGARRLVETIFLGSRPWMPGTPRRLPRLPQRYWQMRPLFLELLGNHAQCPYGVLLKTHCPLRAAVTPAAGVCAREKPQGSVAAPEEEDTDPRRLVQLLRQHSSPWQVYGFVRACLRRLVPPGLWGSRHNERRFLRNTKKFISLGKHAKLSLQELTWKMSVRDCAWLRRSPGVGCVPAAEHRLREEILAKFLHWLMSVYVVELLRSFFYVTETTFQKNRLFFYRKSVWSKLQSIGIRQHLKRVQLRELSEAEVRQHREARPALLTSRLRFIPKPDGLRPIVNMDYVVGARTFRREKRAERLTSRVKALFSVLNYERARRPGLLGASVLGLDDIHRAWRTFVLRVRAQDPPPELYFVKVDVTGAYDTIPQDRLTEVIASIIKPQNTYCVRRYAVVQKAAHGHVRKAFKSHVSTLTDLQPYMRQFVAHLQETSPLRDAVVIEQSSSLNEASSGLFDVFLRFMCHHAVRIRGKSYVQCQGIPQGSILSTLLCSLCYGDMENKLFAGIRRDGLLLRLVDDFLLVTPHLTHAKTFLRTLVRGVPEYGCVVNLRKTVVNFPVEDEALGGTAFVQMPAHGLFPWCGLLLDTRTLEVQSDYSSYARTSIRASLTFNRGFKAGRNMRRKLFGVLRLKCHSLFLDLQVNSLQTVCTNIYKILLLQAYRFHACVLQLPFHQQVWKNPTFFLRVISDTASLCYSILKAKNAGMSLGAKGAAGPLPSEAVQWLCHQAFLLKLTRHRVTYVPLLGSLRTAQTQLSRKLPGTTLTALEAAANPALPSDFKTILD
T1 sequence (O60832 whole entry partner): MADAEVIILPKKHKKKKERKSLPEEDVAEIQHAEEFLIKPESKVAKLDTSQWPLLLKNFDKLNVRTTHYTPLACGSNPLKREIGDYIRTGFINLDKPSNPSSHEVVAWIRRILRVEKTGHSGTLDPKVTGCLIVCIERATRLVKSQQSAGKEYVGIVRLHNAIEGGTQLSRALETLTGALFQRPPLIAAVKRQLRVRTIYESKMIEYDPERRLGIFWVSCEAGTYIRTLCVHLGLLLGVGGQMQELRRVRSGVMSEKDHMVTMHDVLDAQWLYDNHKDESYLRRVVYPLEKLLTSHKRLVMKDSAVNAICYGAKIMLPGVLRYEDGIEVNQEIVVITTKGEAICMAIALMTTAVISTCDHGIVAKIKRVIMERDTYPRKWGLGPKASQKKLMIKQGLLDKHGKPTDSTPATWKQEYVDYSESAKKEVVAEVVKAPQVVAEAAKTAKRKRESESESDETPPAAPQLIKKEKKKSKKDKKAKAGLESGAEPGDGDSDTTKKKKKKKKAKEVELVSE
T1 sequence (Q9NPE3 whole entry partner): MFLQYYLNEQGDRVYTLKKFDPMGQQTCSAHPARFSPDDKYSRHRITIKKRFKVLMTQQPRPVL
T1 sequence (Q9NX24 whole entry partner): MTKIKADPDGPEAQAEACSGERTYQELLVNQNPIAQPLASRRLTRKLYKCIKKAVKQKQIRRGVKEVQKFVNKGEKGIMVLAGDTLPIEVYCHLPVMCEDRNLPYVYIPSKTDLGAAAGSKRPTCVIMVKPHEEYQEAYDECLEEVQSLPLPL
T1 sequence (Q9NY12 whole entry partner): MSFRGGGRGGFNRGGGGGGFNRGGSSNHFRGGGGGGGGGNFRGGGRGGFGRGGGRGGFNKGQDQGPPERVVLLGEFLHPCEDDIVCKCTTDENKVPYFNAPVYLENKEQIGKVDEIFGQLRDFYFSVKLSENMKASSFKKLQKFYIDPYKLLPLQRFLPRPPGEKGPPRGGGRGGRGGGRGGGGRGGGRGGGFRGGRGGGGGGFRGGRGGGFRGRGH

[8] = test system: lymphoma cell line JY 616; test: Telomere length of JY lymphoma cells by Southern blot; format: cell-based, human; conditions: 10 μM, 9 and 10 weeks
Description: The first lane is DNA from the cells at the start of the experiment, the second is the RPMI control, and the third is cells treated with AZT for the times indicated.
Cells were treated over a 10 week period with either 10 μM ddG in 0.01% DMSO or medium with 0.01% DMSO only.
as §1

Tetrahymena cells [9] = test: Telomere length in vegetatively grown Tetrahymena by Southern blot; format: cell-based, Tetrahymena thermophila; conditions: up to 1 mM, 5 days of subculturing (15-20 cell generations), 2% PPYS
Description: as §2, §3
For analysis of macronuclear DNA from vegetative cultures containing d4T (Sigma) or control lacking the analog, stock cultures (SB210 VI) were grown overnight in Isobroth as described. Cells were then counted and duplicate cultures inoculated at 500 cells/5 ml Isobroth in 50 ml conical tubes, and grown at 30° C., shaking 80 rpm. 500-2000 cells were transfered to fresh broth every 2-4 days, and the remainder pelleted and stored at −80° C. until processed for DNA analysis.
Restriction digests, agarose gel electrophoresis, transfer of DNA to Nytran filters (Schleicher and Schuell), and hybridization with ^32P-nick-trapplated or random-primed probes were carried out using standard procedures (Maniatis et.al. 1989). Telomere length was analyzed as described previously for Tetrahymena [Larson 50 Cell, 477, 1987].
Telomere lengths in cells grown in the presence of the different analogs were monitored by Southern blot analysis of DNA samples extracted at a series of time points during the subculturings. The telomeres of cells grown vegetatively in 1 and 5 mM AZT in 2% PPYS medium were reproducibly shortened by up to an average of 170 base pairs compared with the control cultures grown in 2% PPYS in the absence of the drug (FIG. 21A and B). This shortening of telomeres occured in a concentration-dependent manner (FIG. 21B), with at least 50% of the maximal shortening effect occurring by 10 μM AZT, the lowest concentration tested.

[10] = 0.01 mM analog (head prints MM), first block for the analog
[11] = 0.01 mM analog, first block for the analog
[12] = 0.1 mM analog (head prints MM), first block for the analog
[13] = 0.1 mM analog, first block for the analog
[14] = 1.0 mM analog (head prints MM), first block for the analog
[15] = 1.0 mM analog, first block for the analog
[16] = 0.001 mM analog (head prints MM), first block for the analog
[17] = 0.001 mM analog, first block for the analog

| inhibition of human telomerase [7] | Compound | % CHX-R (Tetrahymena cells [3]; [10]) [%] | # CHX-R (Tetrahymena cells [3]; [11]) | % CHX-R (Tetrahymena cells [3]; [12]) [%] | # CHX-R (Tetrahymena cells [3]; [13]) | % CHX-R (Tetrahymena cells [3]; [14]) [%] | # CHX-R (Tetrahymena cells [3]; [15]) | irreversible disruption of macronuclear development (Tetrahymena cells [3]) | % CHX-R (Tetrahymena cells [3]; [16]) [%] | # CHX-R (Tetrahymena cells [3]; [17]) | telomere length compared with control cultures (Tetrahymena cells [9]) | other results |
| --- | --- | --- | --- | --- | --- | --- | --- | --- | --- | --- | --- | --- |
| – | 5′-TTAGGGTTAGGG-3′ (listed as DNA, chemistry not given here) [GTO-12, guanidine-rich terminal oligonucleotide-12 bp] | – | – | – | – | – | – | – | – | – | – | TRF length after 90 days ([1]; 10 μM, 30 μM and 100 μM): regained TRF length in a dose dependent manner; population doublings in 90 days ([1]; 10 μM): 40 PDL; population doublings in 90 days ([1]; 30 μM): 35 PDL; population doublings in 90 days ([1]; 100 μM): 25 PDL; doublings after which cells ceased to proliferate ([2]; 1.0 μM): less than 10 doubling; proliferation phenotype ([2]; doses of less than 1.0 μM (0.1 μM, 0.01 μM)): continued replicating in an immortal phenotype |
| effective inhibitors of human telomerase | Nc1nc2c(ncn2[C@@H]2O[C@H](CO)[C@@H](O)[C@@H]2O)c(=O)[nH]1 [Ara-G] | 81 | 114 | 80 | 134 | 55 | 89 | little or no irreversible disruption | – | – | – | % CHX-R (Tetrahymena cells [3]; 1.0 mM analog (head prints MM), second block for the analog): 59%; # CHX-R (Tetrahymena cells [3]; 1.0 mM analog, second block for the analog): 51; % CHX-R (Tetrahymena cells [3]; 2.0 mM analog (head prints MM), second block for the analog): 43%; # CHX-R (Tetrahymena cells [3]; 2.0 mM analog, second block for the analog): 40; plating efficiency compared with control medium (Tetrahymena cells [4]): no changes in the plating efficiency; cell growth [5]: slowed growth; cell doubling rate, morphology, long term viability (Tetrahymena cells [6]): no effects on cell doubling rate, morphology or long term viability |
| effective inhibitors of human telomerase | Nc1nc2c(ncn2[C@H]2CC[C@@H](CO)O2)c(=O)[nH]1 [ddG] | – | – | 85 | 73 | 77 | 51 | little or no irreversible disruption | 84 | 86 | no changes in telomere length | telomere length compared to the DMSO control [8]: decrease in telomere length |
| – | O=c1[nH]cnc2c1ncn2[C@H]1CC[C@@H](CO)O1 [ddI] | 89 | 85 | 78 | 83 | 91 | 100 | little or no irreversible disruption | 83 | 59 | no changes in telomere length | – |
